Results: patent US20250161264A1, “(AMPAR-PAM)-NMDA RECEPTOR ANTAGONIST COMBINATION THERAPY FOR TREATMENT OF MENTAL CONDITIONS AND DISORDERS” (Gilgamesh Pharmaceuticals, Inc., priority 2022, published 2025)

Columns and labels:
Male Sprague Dawley rats = assay: Rat forced swim test (FST); assay type: in vivo; details: Example 3; Compound 18R 1, 3.2 or 10 mg/kg s.c., second injection vehicle or BIIB-104 0.03 mg/kg; 23.5 h before Swim 2
Experimental: Animals. Male Sprague Dawley rats, aged 8-10 weeks, are used in the experiments. Animals are housed in groups of 2 under controlled temperature (22±3° C.) and relative humidity (30-70%) conditions, with 12-hour light/dark cycles, and with ad libitum food and water. All efforts are made to minimize suffering.
Drugs and Drug Administration. Test compounds, vehicle, and the positive control desipramine are administered subcutaneously (s.c.), with doses calculated based on the free base. A pharmacologically inert vehicle is used. All compounds are administered at a volume of 5 mL/kg. Test compounds (in each case, an AMPAR-PAM+an NMDAR-ant together, or either compound alone) and vehicle are administered 0.5 h after the start of the training swim (Swim 1) and 23.5 h before the test swim (Swim 2). Desipramine is administered 3 times, at 23.5 h, 5 h, and 1 h before the test swim (Swim 2), each time at a dose of 20 mg/kg.
Forced Swim Test (FST). […] Group size is N=10 per treatment. […]
Behavioral scoring is conducted by observers who are blind to the treatment groups. Animals are continuously observed during Swim 2 and the total time spent engaging in the following behaviors is recorded: immobile, swimming, and climbing. […]
Drugs and Drug Administration. Test compounds, vehicle, and the positive control desipramine are administered subcutaneously (s.c.), with doses calculated based on the free base. […]

[1] = test system: Male Wistar Han or Wistar Kyoto rats; assay: Chronic mild stress (CMS) procedure, sucrose intake; assay type: in vivo, rat; details: stressed rats
Experimental: (§1) Animals. Male Wistar Han or Wistar Kyoto rats (Charles River, Sulzfeld, Germany) are brought into the laboratory at the age of 5 weeks (around 100 g), approximately one month before the start of the experiment. Except for the first 10 days after arrival, when the animals are housed in groups of 10, they are singly housed with food and water freely available, and maintained on a 12-h light/dark cycle in constant temperature (22±2° C.) and humidity (45±5%) conditions.
(§2) Drugs and Drug Administration. Test compounds or vehicle are administered subcutaneously (s.c.), with doses calculated based on the free base. A pharmacologically inert vehicle (e.g., saline) is used. All compounds are administered at a volume of 2 mL/kg. Test compounds (in each case, BIIB-104+Compound 18R together, or either compound alone) and vehicle are administered as described below.
Chronic Mild Stress (CMS) Procedure and Sucrose Preference. Male rats (250-350 g) are habituated to drinking 1% sucrose to establish a stable level of sucrose intake. […]
(§3) After sucrose intake has been measured, rats are dosed with BIIB-104 or vehicle once daily for up to 4 weeks (Table 1).
Sucrose intake is measured once per week, in each case before drug administration for that day (˜24 h after the previous drug administration). […]

[2] = test system: Male Wistar Han or Wistar Kyoto rats; assay: Elevated plus maze (EPM) in CMS rats; assay type: in vivo, rat; details: stressed rats; third week of drug testing (typically day 16); 5-min test
Experimental: as §1
Drugs and Drug Administration. Test compounds or vehicle are administered subcutaneously (s.c.), with doses calculated based on the free base. A pharmacologically inert vehicle (e.g., saline) is used. […]
as §3
Elevated Plus Maze (EPM), Animals are tested in two non-transparent boxes, which consist of two open (50×11×40 cm) and two closed (50×11×40 cm) arms. […] The animals are placed in the center of the apparatus and the time spent in each arm, and number of entries into open and closed arms are recorded during a 5-min test.
All rats (all groups in Table 1) are assessed in the EPM in the third week of drug testing (typically day 16). Stressed vehicle-treated rats (S1) have higher levels of anxiety measured by a lower % time spent in open arms compared to control vehicle-treated rats (C1). […]

[3] = test system: Male Wistar Han or Wistar Kyoto rats; assay: Novel object recognition (NOR) test in CMS rats; assay type: in vivo, rat; details: stressed rats; third week of drug testing (typically day 17)
Experimental: as §1
Drugs and Drug Administration. Test compounds or vehicle are administered subcutaneously (s.c.), with doses calculated based on the free base. A pharmacologically inert vehicle (e.g., saline) is used. All compounds are administered at a volume of 2 mL/kg. […]
as §3
Novel Object Recognition (NOR) Test. […] Rats are returned to the open field and the duration of exploration of each object is recorded in a 5-min test. A recognition index is calculated according to the formula: time of novel object exploration minus time of familiar object exploration, divided by total exploration time (novel plus familiar objects). During NOR sessions, the number of line crossings is recorded as a measure of locomotor activity.
All rats (all groups in Table 1) are assessed in the NOR in the third week of drug testing (typically day 17). […]

Male C57BL/6 mice [4] = assay: Accelerating rotarod; assay type: in vivo, mouse; details: Compound 18R 3.2, 10 or 32 mg/kg s.c.; BIIB-104 0.03 mg/kg s.c. 0-30 min prior; 5 min and 30 min after second injection
Experimental: Animals. Male C57BL/6 mice (8-10 weeks old) are housed in groups of >2 under standard environmentally controlled conditions (22 to 24° C.; relative humidity of 30 to 70%) with a standard 12-h light cycle. Food and water are available ad libitum.
as §2, with “compounds and” for “compounds or”, “vehicle” for “vehicle (e.g., saline)”, “of 10” for “of 2”
Rotarod Procedure. Mice will be trained to stay on a rotating bar (‘rotarod’) on days −4 and −2 by being placed on a bar rotating at 4 rpm for 3 min for 3 sessions separated by ˜10 min. On days −1 and 0, this will be repeated using a faster speed of 15 rpm. Mice that have a fall latency <80 s during training will be omitted from the study. On day 1, mice will be administered (s.c.) vehicle or BIIB-104 (0.03 mg/kg) 0-30 min prior to vehicle or Compound 18R (3.2, 10, or 32 mg/kg), for a total of 8 groups of n=10-12/group. Five min after the second injection, mice will be placed on the rotarod which will accelerate from 4 to 40 rpm over 300 s. The latency of mice to fall will be recorded. […]

Male C57BL/6 mice [5] = assay: Visual discrimination task; assay type: in vivo, mouse; details: Compound 18R 10, 32 or 100 mg/kg s.c.; BIIB-104 0.03 mg/kg s.c. 0-30 min prior
Experimental: Animals Male C57BL/6 mice (8-10 weeks old) are housed in groups of >2 under standard environmentally controlled conditions (22 to 24° C.; relative humidity of 30 to 70%) with a standard 12-h light cycle. Five days prior to the start of operant conditioning experiments, all subjects are placed on a food restriction diet designed to maintain a stable 80-85% of free feeding weight.
Drugs and Drug Administration. Test compounds and vehicle are administered subcutaneously (s.c.), with doses calculated based on the free base. A pharmacologically inert vehicle is used. All compounds are administered at a volume of 10 mL/kg. Test compounds (in each case, BIIB-104+Compound 18R together, or either compound alone) and vehicle are administered as described below. Mice are tested in a randomized cross-over design such that different compound combinations are tested in the same mice and a sample size of n=8-12/group is achieved. Compound testing sessions are separated by at least 3 days.
Visual Discrimination Procedure. A cohort of mice is trained to perform the visual discrimination task according to published methods (Dillon et al., 2009, Behavioural Brain Research 204, 67-76). The testing apparatus is a standard operant chamber (Med Associates, St Albans, VT). […]

| Compound | immobility time (Male Sprague Dawley rats) | sucrose intake ([1]; vs vehicle-treated stressed rats, Compound 18R 1.5 mg/kg i.p. day 1, 24 h later) | durability of the effect on sucrose intake ([1]; Compound 18R day 1, then vehicle (S2) or BIIB-104 0.03 mg/kg s.c. (S4) daily days 2-28) | time spent in open arms [2] | preference for the novel object (recognition index) [3] | latency to fall off the rotarod (Male C57BL/6 mice [4]) | visual discrimination test accuracy (Male C57BL/6 mice [5]) |
| --- | --- | --- | --- | --- | --- | --- | --- |
| CN[C@@]1(c2ccc(F)cc2)CCCCC1=O [Compound 18R] | dose-dependent decrease in immobility time | increase in sucrose intake | 1-2 weeks | greater time in the open arms than stressed vehicle-treated rats (S1), but less time than unstressed vehicle-treated rats (C1) | limited preference for exploring the novel object | dose-dependently reduces the latency of mice to fall | dose-dependently decreases visual discrimination test accuracy |
| pesampator [BIIB-104, reference compound] |  |  |  |  |  | does not change latency to fall |  |
